Values of other authors as cited in patent US20230000960A1, “NEOANTIGEN COMPOSITIONS AND USES THEREOF” (BIONTECH US INC., priority 2019, published 2023).

System: ovarian carcinoma patients
Settings: poly-ICLC in combination with a NYESO-1 peptide vaccine (in addition to Montanide); phase 1 study

poly-ICLC
patients showing induction of CD4+ and CD8+ T cell, as well as antibody responses to the peptide: > 90%
